Experimental data taken from article PMC9668969 (Nature Communications, 2022).
“And” between values parts separate entries of the source, which are not always exact repeats. Identical values can stand only once.

Tested on: WT ELIC
Test: Asymmetric liposome stopped-flow Tl+ flux assay (no exchange vs exchange, 25 mol% outer leaflet POPG)
Format: biochemical, Erwinia chrysanthemi
Design: key to Tl+ flux quenching rate, Avg. / Tl+ flux quenching rate: Tl+ influx rate kt at 2 ms from stretched-exponential fit (Eq. 2b)
Conditions: for Tl+ flux quenching rate, Avg. / Tl+ flux quenching rate: Exchange: WT in 3:1 PC:PE, 25% POPG in outer leaflet by beta-CD; for Tl+ flux quenching rate: single experiments
Description: The fluorescence sequential-mixing stopped-flow liposomal flux measurements were carried using an SX20 stopped-flow spectrofluorometer (Applied Photophysics) and Pro-Data SX software[13],[30]. 7.5 mg of the respective lipid mixture (POPC, 1:1 POPC: POPE, 1:1 POPC:POPG, 3:1 POPC:POPE, 3:1 POPC:POPG, 2:1:1 POPC:POPE:POPG) was dried in a glass vial to a thin film under a constant stream of N2. The lipids were then further dried under vacuum in a desiccator overnight. The following day the lipids were hydrated in 500 µl of reconstitution buffer (100 mM NaNO3, 10 mM HEPES, pH 7) (Buffer R), 250 µl of 75 mM 8-Aminonaphthalene-1,3,6-Trisulfonic Acid (ANTS, ThermoFisher Scientific) in buffer R, and doped with ~18 mg of CHAPS (Anatrace). The mixture was vortexed and then sonicated with heat until completely solubilized. Following the sonication, the solution was brought to RT then 3.5 µl of 6.7 mg/ml ELIC in Buffer A with 0.02% DDM was added (3 µg per mg of lipid). This combined solution was incubated at RT for 30 min, followed by the addition of 1 ml of 1:1 v/v SM-2 BioBeads in Buffer R and an additional 250 µl of 75 mM ANTS in Buffer R. This mixture was incubated at RT for 2.5 hr with gentle mixing. The liposome suspension was then extruded with an Avanti mini-extruder and 0.1 µm membrane (30×). The extruded liposomes were stored at 13 °C overnight with gentle rotation. The next day, the liposomes were diluted to 2.5 mL using assay buffer (140 mM NaNO3, 10 mM HEPES, pH 7) (Stopped-flow Buffer A), loaded into a PD-10 desalting column (Cytiva), eluted with 3 mL of Stopped-flow Buffer A and subsequently diluted 5-fold with Stopped-flow Buffer A.
Using propylamine as the agonist, the assay and analysis was carried out as previously described[13],[30]. ELIC-containing liposomes were first mixed 1:1 with Buffer A containing 2× the concentration of propylamine. After a variable delay of 10 ms to 25 s, the sample was then mixed 1:1 with a quenching buffer (90 mM NaNO3, 50 mM TlNO3, 10 mM HEPES, pH 7), and ANTS fluorescence (ex. 360 nm, fluorescence above 420 nm) was recorded for 1 s. For each delay time, 5 repeat measurements were obtained. The data were collected using Applied Photophysics Pro-Data SX software. The fluorescence quenching traces were fit to a stretched exponential (Eq. 2a) and the rate of Tl^+ influx was determined at 2 ms (Eq. 2b).2a Ft=F∞+F0−F∞⋅e^−t/τ^β 2b kt=β/τ⋅2ms/τ^(β−1) where Ft, F∞, F0 are the fluorescence at time t, final fluorescence and initial fluorescence. τ is the time constant, β the stretched exponential factor, and kt the calculated rate of Tl^+ influx at 2 ms. The time course of desensitization was also fit to a double exponential and a weighted time constant was calculated as was done for the patch-clamp data using Origin 2019b. All replicates were taken from independent samples.
Acceptor liposomes were prepared as described in the Stopped-flow fluorescence recordings section until completion of the extrusion step. The preparation was scaled up 2x to produce samples for the no-exchange and exchange conditions. After extrusion and storage of the liposomes overnight at 13 °C, the double liposome preparation was split into two equal volume aliquots of ~1.5 ml. Using the excel spreadsheet provided by Markones et al.[44], donor POPG and methyl-β-cyclodextrin (MβCD, Sigma) concentrations and volumes were calculated to produce an outer leaflet POPG content of 25 mol% in the liposomes. The calculations assumed a ~6.66 mM lipid concentration and 1.5 mL volume of the acceptor liposome solution[44]. A MβCD-POPG (50% saturation of MβCD by POPG) solution was formed by combining 224 µL 7.5 mM POPG in Stopped-flow Buffer A, 650 µl 300 mM MβCD in Stopped-flow Buffer A, and 126 µL Stopped-flow Buffer A, which was then mixed at 50 °C and 1000 RPM for 20 min using an Eppendorf thermomixer. […]

[1] = 25 mol% in outer leaflet, 10 mM propylamine
[2] = 10 mM propylamine, delay 0.01 s
[3] = 10 mM propylamine, delay 0.05 s
[4] = 10 mM propylamine, delay 0.25 s

With `CCCCCCCC/C=C\CCCCCCCC(=O)OC(COC(=O)CCCCCCCCCCCCCCC)COP(=O)(O)OCC(O)CO` (stereo not drawn) [POPG, 1-palmitoyl-2-oleoyl-phosphatidylglycerol] the “time constant of desensitization” value (25% POPG introduced to the outer leaflet) was ~ 6 s, the “effect on peak agonist response” value [1] was “increased the peak agonist response approximately two-fold” and the “effect on rate of desensitization” value [1] was “reduced the rate of desensitization”. The “Tl+ flux quenching rate, Avg.” value [2] was 18.3739, the “Tl+ flux quenching rate, Avg.” value (10 mM propylamine, delay 0.025 s) was 13.1397 and the “Tl+ flux quenching rate, Avg.” value [3] was 28.9905. For the same compound, the “Tl+ flux quenching rate, Avg.” value (10 mM propylamine, delay 0.1 s) was 40.2879, the “Tl+ flux quenching rate, Avg.” value [4] was 49.694 and the “Tl+ flux quenching rate, Avg.” value (10 mM propylamine, delay 0.5 s) was 74.7874. For the same compound, the “Tl+ flux quenching rate, Avg.” value (10 mM propylamine, delay 1 s) was 70.2446, the “Tl+ flux quenching rate, Avg.” value (10 mM propylamine, delay 2.5 s) was 59.7249 and the “Tl+ flux quenching rate, Avg.” value (10 mM propylamine, delay 5 s) was 40.3668. For the same compound, the “Tl+ flux quenching rate, Avg.” value (10 mM propylamine, delay 10 s) was 38.6421, the “Tl+ flux quenching rate, Avg.” value (10 mM propylamine, delay 25 s) was 9.131 and the “Tl+ flux quenching rate” value [2] was 25.3857 and 14.5673 and 13.3121 and 20.2302. For the same compound, the “Tl+ flux quenching rate” value [3] was 31.4624 and 22.583 and 30.1073 and 31.8092, the “Tl+ flux quenching rate” value [4] was 55.8845 and 34.2232 and 67.362 and 41.3064 and the “Tl+ flux quenching rate” value (10 mM propylamine, delay 0.5 s) was 114.141 and 61.2513 and 65.8238 and 57.9331.
